Assay results reported in US5001133A, “Benzoic acid derivatives” (Sandoz Ltd., priority 1983, dated 1991).

What was measured:
[1] = biological target: T1, serotonin M receptor (Oryctolagus cuniculus, UniProt A0A5F9C9J3); experiment: inhibition of the effect of serotonin on the isolated rabbit heart; conditions: antagonism of serotonin, read-out: pA2 (converted)
T1 construct: isolated rabbit heart; from tissue; host or cells: isolated rabbit heart
T1 sequence (A0A5F9C9J3 1-494): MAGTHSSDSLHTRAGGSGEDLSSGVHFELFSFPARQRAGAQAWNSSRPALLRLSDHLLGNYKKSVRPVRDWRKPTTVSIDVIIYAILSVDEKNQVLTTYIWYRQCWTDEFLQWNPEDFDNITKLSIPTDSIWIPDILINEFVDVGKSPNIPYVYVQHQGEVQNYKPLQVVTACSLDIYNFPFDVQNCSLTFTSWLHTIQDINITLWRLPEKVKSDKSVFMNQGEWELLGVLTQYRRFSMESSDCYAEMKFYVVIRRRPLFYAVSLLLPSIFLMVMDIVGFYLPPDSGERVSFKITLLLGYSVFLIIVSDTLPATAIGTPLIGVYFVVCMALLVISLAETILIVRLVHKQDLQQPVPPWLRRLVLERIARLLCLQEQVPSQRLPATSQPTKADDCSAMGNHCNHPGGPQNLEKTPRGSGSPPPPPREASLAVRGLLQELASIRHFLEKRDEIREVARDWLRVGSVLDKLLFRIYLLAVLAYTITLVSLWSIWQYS
Excerpt: The serotonin M receptor antagonist activity is also indicated by inhibiting the effect of serotonin on the isolated rabbit heart according to the method of J.R.Fozard and A.T.Moborak Ali, European Journal of Pharmacology, (1978), 49, 109-112 at concentrations of 10^-11 to 10^-5 M of the compound of the invention. pD'2 or pA2 values may be calculated in the conventional manner.
The compounds of formula I may be administered in similar manner to known standards for use in these utilities. The suitable daily dosage for a particular compound will depend on a number of factors such as its relative potency of activity.

[2] = test system: M receptors for serotonin; conditions: isolated rabbit vagus nerve; cited from earlier work
[3] = test system: 5-HT M-receptors; conditions: slow i.v. injection of 10 mg; cited from earlier work
[4] = test system: serotonin M receptor; conditions: blister base, forearm of human volunteers; cited from earlier work

| Structure (SMILES) | block of the action of serotonin on C fibre action potential amplitude [2] | other results |
| --- | --- | --- |
| COC1CC2CC(OC(=O)c3c[nH]c4ccccc34)CC1N2C (stereo not drawn) [Example 2] | – | Kb [1]: 0.01 nM |
| CSc1ccc2c(c1)C(N1CCN(C)CC1)Cc1ccccc1S2 (stereo not drawn) [metitepine] | not blocked | – |
| CCN(CC)CCNC(=O)c1cc(Cl)c(N)cc1OC [Metoclopramide] | – | effect on a migraine attack [3]: immediate beneficial effect |
| CCN(CC)C(=O)[C@@H]1C=C2c3cccc4[nH]cc(c34)C[C@H]2N(C)C1 [lysergic acid diethylamide] | – | inhibition of the algesic action of serotonin [4]: not inhibited |
| CCN(CC)C(=O)[C@@H]1C=C2c3cccc4[nH]c(Br)c(c34)C[C@H]2N(C)C1 [BOL--148] | not blocked | – |
| CC[C@@H](CO)NC(=O)[C@@H]1C=C2c3cccc4c3c(cn4C)C[C@H]2N(C)C1 [methysergide] | not blocked | – |
